{
  "source": "patent US12516331B2",
  "about": "“Monocyte-specific aptamers and uses thereof for enhancing drug delivery to cancer” (Academia Sinica, priority 2020, dated 2026)",
  "key": {"[1]": {"test_system": "human monocyte cell line THP-1", "test": "Flow cytometry binding of Cy5-labeled aptamers to human monocyte cell line THP-1", "details": "THP-1 cells, 200 nM Cy5-aptamer, 4° C., 30 minutes (FIG. 3)", "protocol": "(§1) To confirm that J10 binding, but not S2 binding, was selective to human monocytes in vitro, Cy5-labeled J10 and S2 were also incubated with the human monocyte cell lines, THP-1 and U937, and human umbilical cord endothelial cells (HUVEC), which were used as a negative control. In brief, 5×10^5 of each selected cell line was pre-mixed in a bloc king buffer (20% FBS and 10% salmon sperm DNA in PBS) at 4° C. for 30 minutes. After that, the cells were reacted with 200 nM Cy5-J10 or Cy5-S2 in the blocking buffer at 4° C. for 30 minutes. Finally, the sample was subjected to flow cytometry using standard protocols known in the art."}, "[2]": {"test_system": "RAW264.7 (murine monocyte cell line)", "test": "Flow cytometry binding of Cy5-labeled aptamers to monocyte cell line RAW264.7", "set-up": "species or system mouse", "details": "RAW264.7 cells, 200 nM Cy5-aptamer, 4° C., 30 minutes, flow cytometry (FIG. 2A)", "protocol": "(§2) To confirm that J10, but not S2, was capable of binding selectively to monocytes in vitro, the J10 and S2 aptamers were first labeled with the fluorescent labeling reagent Cy5 ((2Z)-2-[(2E,4E)-5-[1-(5-Carboxypentyl)-3,3-dimethyl-5-sulfoindol-1-ium-2-yl]penta-2,4-dienylidene]-1-ethyl-3,3-dimethylindole-5-sulfonate) and then incubated with monocyte cells lines RAW264.7 and J774A.1. Cy5-labeled J10 and S2 were also incubated with the mouse endothelial cell line SVEC which was used as a negative selection. In brief, 5×10^5 of each selected cell line was pre-mixed in a bloc king buffer (20% FBS and 10% salmon sperm DNA in PBS) at 4° C. for 30 minutes. After that, the cells were reacted with 200 nM Cy5-J10 or Cy5-S2 in the blocking buffer at 4° C. for 30 minutes. Finally, the sample was subjected to flow cytometry using standard protocols known in the art. […] Together, the data in FIGS. 2A and 2B confirmed that J10, but not S2, was capable of binding selectively to monocytes in vitro and being carried to the injured site in vivo."}, "[3]": {"test_system": "mouse endothelial cell line SVEC", "test": "Flow cytometry binding of Cy5-labeled aptamers to endothelial cell line SVEC (negative selection)", "details": "200 nM Cy5-aptamer, 4° C., 30 minutes, flow cytometry (FIG. 2A)", "protocol": "as §2"}, "[4]": {"test_system": "circulating myeloid cells (CD45+ CD11b+ cells)", "test": "Ex vivo binding of Cy5-aptamer to peripheral blood cells by flow cytometry", "set-up": "species or system mouse", "details": "peripheral blood of healthy mice, 2 μM Cy5-Apt, 30 minutes at 4° C. (FIG. 2D)", "protocol": "To test ex vivo binding specificity and affinity, 100 μL peripheral blood from healthy mice was withdrawn via the submandibular vein, collected in EDTA-containing anticoagulant tubes (BD Vacutainer), and incubated with 2 mL ACK lysing buffer for 10 minutes to lyse the red blood cells. After that, 2% FBS in PBS was added to stop the reaction. Following centrifugation (300 g for 3 minutes at 4° C.) the supernatants were removed. One million cells were blocked by CD16/CD32 Fc blocking antibody (1:100) after incubation for 20 minutes. Then the cells were stained for CD45 (PE-Cy7; 1:100 Biolegend), CD11b (PE; 1:200 Biolegend) and 2 μM Cy5-Apt for 30 minutes at 4° C. Finally, the cells were washed by 2% FBS in PBS and subjected to flow cytometry using standard protocols known in the art."}, "[5]": {"test": "PCR analysis of aptamer targeting to the injured site in the mouse cardiac ischemia reperfusion (I/R) model", "type": "in vivo", "details": "intravenous injection, mouse cardiac I/R model (FIG. 2B)", "excerpt": "FIGS. 2A-2D include diagrams depicting the specificity of J10 aptamer to monocytes. FIG. 2A: depicts a graph showing the amount of Cy5-labeled J10 aptamer and Cy5-labeled S2 aptamer in the monocyte cells lines RAW264.7 and J774A.1 and the mouse endothelial cell line SVEC as measured by flow cytometry. Mouse endothelial cell line SVEC was used as a negative selection. The S2 aptamer had the same nucleotide composition as J10 aptamer but randomized the sequence. Two-way ANOVA with a Tukey adjustment was used to analyze the data where *P<0.05; **P<0.01; ***P<0.001 were significant. FIG. 2B: Top panel depicts images showing the accumulating amount of J10 and S2 aptamers in infarct area of the injured hearts as measured by PCR. Bottom panel depicts quantification of PCR results. Unpaired Student's t-test was used to analyze the data where *P<0.05; **P<0.01; ***P<0.001 were significant. FIG. 2C: depicts images showing in vivo targeting of in vivo targeting of S2 aptamer-QD655 (top panel) J10 aptamer-QD655 (bottom panel) to circulating CX3CR1-GFP^+ monocytes via intravital imaging. The aptamer was conjugated with quantum dots QD655. Scale bars shown represent 100 μm. FIG. 2D: depicts a graph showing ex vivo targeting of J10 aptamer against circulating monocytes examined with flow cytometry to analyse the amount of Cy5-J10 associated with CD45^+ and CD11b^+ cells isolated from peripheral blood. […]"}, "[6]": {"test_system": "J774A.1 (murine monocyte cell line)", "test": "Flow cytometry binding of Cy5-labeled aptamers to monocyte cell line J774A.1", "set-up": "species or system mouse", "details": "J774A.1 cells, 200 nM Cy5-aptamer, 4° C., 30 minutes, flow cytometry (FIG. 2A)", "protocol": "as §2"}, "[7]": {"test_system": "human monocyte cell line U937", "test": "Flow cytometry binding of Cy5-labeled aptamers to human monocyte cell line U937", "details": "U937 cells, 200 nM Cy5-aptamer, 4° C., 30 minutes (FIG. 3)", "protocol": "as §1"}},
  "data": [
    {"substance": "J10: monocyte-targeting DNA aptamer identified by cell-SELEX; sequence in Table 1; Cy5-labeled for flow cytometry (DNA CAATAGAGTCGTACAGGTCGACGCT; Cy5-labeled DNA aptamer, label position not given here) [Aptamer J10]", "values": [
      {"measurement": "binding affinity (flow cytometry)", "setting": "[1]", "value": "high binding affinity"},
      {"measurement": "percentage of Cy5-labeled monocytes", "setting": "[2]", "value": "significantly higher than the percentage of Cy5-labeled S2 monocytes"},
      {"measurement": "detection of Cy5-labeled aptamer in endothelial cells", "setting": "[3]", "value": "no detection"},
      {"measurement": "ex vivo affinity to CD45+ CD11b+ cells", "setting": "[4]", "value": "high affinity"},
      {"measurement": "in vivo targeting to the injured site (PCR)", "setting": "[5]", "value": "confirmed in vivo targeting ability"},
      {"measurement": "percentage of Cy5-labeled monocytes", "setting": "[6]", "value": "significantly higher than the percentage of Cy5-labeled S2 monocytes"},
      {"measurement": "binding affinity (flow cytometry)", "setting": "[7]", "value": "high binding affinity"}
    ]}
  ]
}
